Measurements taken from patent US11707454B2, “Topical roflumilast formulation having antifungal properties” (ARCUTIS BIOTHERAPEUTICS, INC., priority 2020, dated 2023).
Like-named read-outs stand apart in the source and are kept apart here.

How the values were obtained:
Format in all cases: cell-based
[1] = system: C. parapsilosis (ATCC 22019); assay: in vitro micro-dilution susceptibility assay (method of Rojas); settings: Lodderomyces parapsilosis, C. parapsilosis (22019), read-out: minimum inhibition concentration (MIC)
Protocol: (§1) The in vitro susceptibility of Malassezia species to roflumilast was determined utilizing three Candida species as internal control isolates for all testing. These three isolates were C. albicans American Type Culture Collection (ATCC) 90028, C. krusei (ATCC 6258) and C. parapsilosis (ATCC 22019). In addition to testing roflumilast all susceptibility assays were conducted using ketoconazole and hydrocortisone as positive and negative control compounds, respectively. All assays were placed within a humidified incubator set to 32° C. for a total of seven days. Each assay was evaluated after 12 hours of incubation and, every 24 hours post incubation for a total of seven days. The assays were evaluated for visual growth of each pathogen in the no treatment control as well as determination of minimum inhibition concentration (MIC) values. The concentration that provides a 3-log10 CFU/mL reduction in fungal burden from baseline at day 0 was defined as the minimum fungicidal concentration (MHC) and was determined by quantifying fungal burdens found in the microplate at day seven.
(§2) The method of Rojas (Rojas F D, et al. Antifungal susceptibility of Malassezia furfur, Malassezia sympodialis, and Malassezia globose to azole drugs and amphotericin B evaluated using a broth microdilution method. 2014. Medical Mycology. 52:641-646) was used in which the liquid broth medium was RPMI 1640 with added 1.8% glucose, 1% peptone, 0.5% ox-bile, 0.5% malt extract, 1% glycerol, 0.5% Tween 40 and 0.05% Tween 80. Round bottom 96 well microplates were used. The inoculums were prepared in sterile saline and diluted to a final targeted concentration of 0.5×10^5 to 2.5×10^5 CFU/mL in supplemented RPMI. […] For the internal control isolate C. parapsilosis (ATCC 22019) the expected CLSI values for ketoconazole of 0.03-0.25 (at 24 hours) and 0.06-0.5 (at 48 hours) did agree with the 2-day value (Table A) of 0.5.

M. furfur (ATCC 12078) = assay: as above; settings: for MIC: Malassezia furfur, read-out: minimum inhibition concentration (MIC)
Protocol: as §1, §2

M. furfur (ATCC 44344) = assay: as above; settings: for MIC: Malassezia furfur, read-out: minimum inhibition concentration (MIC)
Protocol: as §1, §2

[2] = system: M. restricta (ATCC MYA-4611); assay: as above; settings: for MIC: read-out: minimum inhibition concentration (MIC)
Protocol: as §1, §2

C. krusei (ATCC 6258) = assay: as above; settings: Pichia kudriavzevii, read-out: minimum inhibition concentration (MIC)
Protocol: as §1, §2

C. albicans (ATCC 90028) = assay: as above; settings: Candida albicans, read-out: minimum inhibition concentration (MIC)
Protocol: as §1, §2

M. furfur (ATCC 14521) = assay: as above; settings: for MIC: Malassezia furfur, read-out: minimum inhibition concentration (MIC)
Protocol: as §1, §2

[3] = system: M. globose (ATCC MYA-4889); assay: as above; settings: for MIC: read-out: minimum inhibition concentration (MIC)
Protocol: as §1, §2

[4] = system: Malassezia species and Candida species; assay: in vitro micro-dilution susceptibility assay, summary over all isolates; settings: negative control
Protocol: as §1, with “seven. […]” for “seven.”

## C[C@]12CCC(=O)C=C1CC[C@@H]1[C@@H]2[C@@H](O)C[C@@]2(C)[C@H]1CC[C@]2(O)C(=O)CO [Hydrocortisone]
[1]; ATCC22019, 12 h, Time 0.5 days
  MIC: > 1020 µg/mL
[1]; ATCC22019, 24 h, Time 1 days
  MIC: > 1020 µg/mL
[1]; ATCC22019, 48 h, Time 2 days
  MIC: > 1020 µg/mL
[1]; ATCC22019, 72 h, Time 3 days
  MIC: > 1020 µg/mL
[1]; ATCC22019, 96 h, Time 4 days
  MIC: > 1020 µg/mL
[1]; ATCC22019, 120 h, Time 5 days
  MIC: > 1020 µg/mL
[1]; ATCC22019, 144 h, Time 6 days
  MIC: > 1020 µg/mL
[1]; ATCC22019, 168 h, Time 7 days
  MIC: > 1020 µg/mL
M. furfur (ATCC 12078); ATCC12078, 48 h, Time 2 days
  MIC: > 1020 µg/mL
M. furfur (ATCC 12078); ATCC12078, 72 h, Time 3 days
  MIC: > 1020 µg/mL
M. furfur (ATCC 12078); ATCC12078, 96 h, Time 4 days
  MIC: > 1020 µg/mL
M. furfur (ATCC 12078); ATCC12078, 120 h, Time 5 days
  MIC: > 1020 µg/mL
M. furfur (ATCC 12078); ATCC12078, 144 h, Time 6 days
  MIC: > 1020 µg/mL
M. furfur (ATCC 12078); ATCC12078, 168 h, Time 7 days
  MIC: > 1020 µg/mL
M. furfur (ATCC 12078); Time 0.5 days
  minimum inhibition concentration (MIC): NGO
M. furfur (ATCC 12078); Time 1 days
  minimum inhibition concentration (MIC): NGO
M. furfur (ATCC 44344); ATCC44344, 48 h, Time 2 days
  MIC: > 1020 µg/mL
M. furfur (ATCC 44344); ATCC44344, 72 h, Time 3 days
  MIC: > 1020 µg/mL
M. furfur (ATCC 44344); ATCC44344, 96 h, Time 4 days
  MIC: > 1020 µg/mL
M. furfur (ATCC 44344); ATCC44344, 120 h, Time 5 days
  MIC: > 1020 µg/mL
M. furfur (ATCC 44344); ATCC44344, 144 h, Time 6 days
  MIC: > 1020 µg/mL
M. furfur (ATCC 44344); ATCC44344, 168 h, Time 7 days
  MIC: > 1020 µg/mL
M. furfur (ATCC 44344); Time 0.5 days
  minimum inhibition concentration (MIC): NGO
M. furfur (ATCC 44344); Time 1 days
  minimum inhibition concentration (MIC): NGO
[2]; 120 h, Time 5 days
  MIC: > 1020 µg/mL
[2]; 144 h, Time 6 days
  MIC: > 1020 µg/mL
[2]; 168 h, Time 7 days
  MIC: > 1020 µg/mL
[2]; Time 0.5 days
  minimum inhibition concentration (MIC): NGO
[2]; Time 1 days
  minimum inhibition concentration (MIC): NGO
[2]; Time 2 days
  minimum inhibition concentration (MIC): NGO
[2]; Time 3 days
  minimum inhibition concentration (MIC): NGO
[2]; Time 4 days
  minimum inhibition concentration (MIC): NGO
C. krusei (ATCC 6258); ATCC6258, 12 h, Time 0.5 days
  MIC: > 1020 µg/mL
C. krusei (ATCC 6258); ATCC6258, 24 h, Time 1 days
  MIC: > 1020 µg/mL
C. krusei (ATCC 6258); ATCC6258, 48 h, Time 2 days
  MIC: > 1020 µg/mL
C. krusei (ATCC 6258); ATCC6258, 72 h, Time 3 days
  MIC: > 1020 µg/mL
C. krusei (ATCC 6258); ATCC6258, 96 h, Time 4 days
  MIC: > 1020 µg/mL
C. krusei (ATCC 6258); ATCC6258, 120 h, Time 5 days
  MIC: > 1020 µg/mL
C. krusei (ATCC 6258); ATCC6258, 144 h, Time 6 days
  MIC: > 1020 µg/mL
C. krusei (ATCC 6258); ATCC6258, 168 h, Time 7 days
  MIC: > 1020 µg/mL
C. albicans (ATCC 90028); ATCC90028, 12 h, Time 0.5 days
  MIC: > 1020 µg/mL
C. albicans (ATCC 90028); ATCC90028, 24 h, Time 1 days
  MIC: > 1020 µg/mL
C. albicans (ATCC 90028); ATCC90028, 48 h, Time 2 days
  MIC: > 1020 µg/mL
C. albicans (ATCC 90028); ATCC90028, 72 h, Time 3 days
  MIC: > 1020 µg/mL
C. albicans (ATCC 90028); ATCC90028, 96 h, Time 4 days
  MIC: > 1020 µg/mL
C. albicans (ATCC 90028); ATCC90028, 120 h, Time 5 days
  MIC: > 1020 µg/mL
C. albicans (ATCC 90028); ATCC90028, 144 h, Time 6 days
  MIC: > 1020 µg/mL
C. albicans (ATCC 90028); ATCC90028, 168 h, Time 7 days
  MIC: > 1020 µg/mL
M. furfur (ATCC 14521); ATCC14521, 48 h, Time 2 days
  MIC: > 1020 µg/mL
M. furfur (ATCC 14521); ATCC14521, 72 h, Time 3 days
  MIC: > 1020 µg/mL
M. furfur (ATCC 14521); ATCC14521, 96 h, Time 4 days
  MIC: > 1020 µg/mL
M. furfur (ATCC 14521); ATCC14521, 120 h, Time 5 days
  MIC: > 1020 µg/mL
M. furfur (ATCC 14521); ATCC14521, 144 h, Time 6 days
  MIC: > 1020 µg/mL
M. furfur (ATCC 14521); ATCC14521, 168 h, Time 7 days
  MIC: > 1020 µg/mL
M. furfur (ATCC 14521); Time 0.5 days
  minimum inhibition concentration (MIC): NGO
M. furfur (ATCC 14521); Time 1 days
  minimum inhibition concentration (MIC): NGO
[3]; 120 h, Time 5 days
  MIC: > 1020 µg/mL
[3]; 144 h, Time 6 days
  MIC: > 1020 µg/mL
[3]; 168 h, Time 7 days
  MIC: > 1020 µg/mL
[3]; Time 0.5 days
  minimum inhibition concentration (MIC): NGO
[3]; Time 1 days
  minimum inhibition concentration (MIC): NGO
[3]; Time 2 days
  minimum inhibition concentration (MIC): NGO
[3]; Time 3 days
  minimum inhibition concentration (MIC): NGO
[3]; Time 4 days
  minimum inhibition concentration (MIC): NGO
[4]
  anti-fungal activity (all isolates): no anti-fungal activity
